Reference: ChEMBL document CHEMBL5120840, “Axial chirality and affinity at the GABAA receptor of triazolobenzodiazepines” (Bioorg Med Chem, 2022)
Several values for one entry are separate records, joined by “and”; a condition that tells them apart may be missing. Equal values may be shown once.

Key:
[1] = target: GABA-A receptor; anion channel; experiment: Displacement of [3H]flunitrazepam from GABAA central benzodiazepine receptor in Wistar rat brain membrane without cerebellum measured after 60 mins by scintillation counting analysis; assay type: cell membranes
[2] = target: GABA-A receptor; anion channel (Rattus norvegicus) (UniProt O09028+P15431+P18506+P18508+P19969+P20236+P23574+P23576+P28471+P28473+P30191+P62813+P63079+P63138+Q91ZM7+Q9ES14); experiment: Displacement of [3H]flunitrazepam from GABAA central benzodiazepine receptor in Wistar rat brain membrane without cerebellum measured after 60 mins by scintillation counting analysis relative to control; assay type: cell membranes

`Cc1cc(Cl)cc2c1-n1c(C)nnc1CN=C2c1ccccc1` was tested, and the IC50 [1] was 210 nM and 430 nM and the inhibition [2] was < 50%.

`Clc1ccc2c(c1)C(c1ccccc1Cl)=NCc1nncn1-2` gave an IC50 [1] of 1.94 nM.

`Cc1cc(Cl)cc2c1-n1cnnc1CN=C2c1ccccc1Cl` gave an IC50 [1] of 23 nM.

`Cc1cc(Cl)cc2c1-n1c(C)nnc1CN=C2c1ccccc1Cl` was tested, and the IC50 [1] was 10.9 nM and 34 nM and the inhibition [2] was < 50%.
